These results are taken from patent US12383526B2, “Optimized sigma-1 agonist method of responder selection and treatment” (ANAVEX LIFE SCIENCES CORP., priority 2018, dated 2025).

Assay [1] has as its system subjects with mild-to-moderate AD. Put plainly: KEM Formal Concept Analysis association rules (support, confidence, lift) linking patient characteristics with MMSE / ADCS-ADL response. Details: species or system human. An excerpt:
A small cohort, with the number of patient observations orders of magnitude smaller than number of attributes, constitutes an analytical challenge. In this study, an unsupervised Formal Concept Analysis method (FCA), based on Galois lattices, as implemented in the KEM software (v.3.6.2), was used to identify and rank phenotypic and genotypic biomarkers. No link is assumed in this analysis between biomarkers and outcomes, enabling a hypothesis free, data-driven, generation of all relations.
A total of 3,145,630 relations between all available features were explored. Stringent filtering excluded rules containing variables coding for the absence of DNA variants and medium RNA expression groups. Numerical filtering of rules involved the following thresholds: support (n>3), confidence (>50%), lift (≥1.2) and p-value (Fisher Exact Test or Mann-Whitney-Wilcoxon<0.05). The filtering steps led to a subset of 1,019 association rules linking clinical, genomic and transcriptomics patient characteristics with response at multiple time points. A second filtering step focused on relationships with response at week 57 only, raising […], and lift≥1.5, and excluding RNA expression, CYP variants and dose/concentration from Part A. This further reduced the number of rules to 15 associations linked to outcome as measured by Delta (with binarized discretization) or Slope of MMSE or ADCS-ADL at week 57. The 15 rules are presented in order of highest confidence and highest lift. The stringent filtering focused on relationships of response at week 57 (end of Part B), reduced the number of associations to only 15 linked to outcomes as measured by Delta or Slope MMSE or ADCS-ADL (Table 4). […] Higher concentrations improved Delta ADCS-ADL scores (p=0.03) (FIG. 2C).
The KEM® (Knowledge Extraction and Management) v 3.6.2 software was used to systematically extract relations between all variables collected. […]
P-values from two statistical tests were calculated for each association rule. […]

For another assay, the target named is T1, SIGMAR1 (Mus musculus, UniProt O55242).
T1 construct: from tissue; host or cells: living mice (in vivo PET)
The settings on record: mice; cited from earlier work.

T1 sequence (O55242 whole entry): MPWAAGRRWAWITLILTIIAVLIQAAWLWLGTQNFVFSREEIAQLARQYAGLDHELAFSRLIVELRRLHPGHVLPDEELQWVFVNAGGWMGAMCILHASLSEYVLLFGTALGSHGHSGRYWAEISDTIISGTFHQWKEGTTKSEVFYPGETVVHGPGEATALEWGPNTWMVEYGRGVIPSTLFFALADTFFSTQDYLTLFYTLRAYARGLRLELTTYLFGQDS

For the compound `CN(C)CC1CCOC1(c1ccccc1)c1ccccc1.Cl` (stereo not shown) [ANAVEX2-73, tetrahydro-N,N-dimethyl-2,2-diphenyl-3-furanmethanamine hydrochloride], in assay [1] (Week 57, Support 5, nx 8, ny 7), the “Confidence, High Concentration Part B -> MMSE Slope Improve” value stood at 0.63 and the “Lift, High Concentration Part B -> MMSE Slope Improve” value is given as 1.88. Further, the “increase in probability of improved MMSE outcome” value in assay [1] (average blood concentration above 4 ng/mL in Part B, week 57) was 1.88 fold. The “target binding by PET scan” value at SIGMAR1 is given as “directly bind its target”.
